Measured values: ChEMBL document CHEMBL5724696, “Autophagy assay results for EUbOPEN Chemogenomics Library” (2024)

Legend:
Format in all cases: functional, Homo sapiens
TERT-RPE1 = test: (§1) Here: values are normalized to the negative (DMSO; defined as 0% autophagy induction) and positive (250nM Torin1; mTOR inhibitor; defined as maximal inducer of autophagy = 100%) control compounds and represented as % of autophagy induction. […] The impact of autophagy induction on cells is complex and depends on the affected target. As such, the magnitude of a phenotype may not be equally mirrored in the %-value of autophagy induction and vice versa. The dynamics of the induction may indicate the mode of activation: e.g. activation via phosphorylation or a signaling cascade may occur fast, while activation via transcription factors may take considerably longer. […] Of note, treatment concentrations may be sub-optimal for specific compounds, leading to false negative annotations.; conditions: Culturing Media DMEM/F12 (1:1), 1 % Penicillin/Streptomycin, 10% Fetal bovin serum Add-On: No, Screening Media Control DMEM/F12 (1:1), Screening Media Samples DMEM/F12 (1:1)
U2OS [1] = test: as §1; conditions: Culturing Media DMEM, 1 % Penicillin/Streptomycin, 10% Fetal bovin serum Add-On: No, Screening Media Control DMEM, Screening Media Samples DMEM
U2OS [2] = test: as §1; conditions: Culturing Media DMEM, 1 % Penicillin/Streptomycin, 10% Fetal bovin serum Add-On: No, Screening Media Control DMEM, Screening Media Samples DMEM; remark: listed apart in the source
[3] = Compound Concentration 0.5 uM, Timepoint 12 hours
[4] = Compound Concentration 0.5 uM, Timepoint 24 hours
[5] = Compound Concentration 0.5 uM, Timepoint 36 hours
[6] = Compound Concentration 0.5 uM, Timepoint 60 hours
[7] = Compound Concentration 2 uM, Timepoint 12 hours
[8] = Compound Concentration 2 uM, Timepoint 24 hours
[9] = Compound Concentration 2 uM, Timepoint 36 hours
[10] = Compound Concentration 2 uM, Timepoint 60 hours
[11] = Compound Concentration 10 uM, Timepoint 12 hours
[12] = Compound Concentration 10 uM, Timepoint 24 hours
[13] = Compound Concentration 10 uM, Timepoint 36 hours
[14] = Compound Concentration 10 uM, Timepoint 60 hours

| SMILES | autophagy induction (TERT-RPE1; [3]) [%] | autophagy induction (TERT-RPE1; [4]) [%] | autophagy induction (TERT-RPE1; [5]) [%] | autophagy induction (TERT-RPE1; [6]) [%] | autophagy induction (TERT-RPE1; [7]) [%] | autophagy induction (TERT-RPE1; [8]) [%] | autophagy induction (TERT-RPE1; [9]) [%] | autophagy induction (TERT-RPE1; [10]) [%] | autophagy induction (TERT-RPE1; [11]) [%] | autophagy induction (TERT-RPE1; [12]) [%] | autophagy induction (TERT-RPE1; [13]) [%] | autophagy induction (TERT-RPE1; [14]) [%] | autophagy induction (U2OS [1]; [3]) [%] | autophagy induction (U2OS [1]; [4]) [%] | autophagy induction (U2OS [1]; [5]) [%] | autophagy induction (U2OS [1]; [6]) [%] | autophagy induction (U2OS [1]; [7]) [%] | autophagy induction (U2OS [1]; [8]) [%] | autophagy induction (U2OS [1]; [9]) [%] | autophagy induction (U2OS [1]; [10]) [%] | further results |
| --- | --- | --- | --- | --- | --- | --- | --- | --- | --- | --- | --- | --- | --- | --- | --- | --- | --- | --- | --- | --- | --- |
| COc1ccnc(N2CCC3(CCCN(Cc4c[nH]c5ccccc45)C3=O)CC2)n1 | -7.48 | -12.7476 | -12.8002 | -18.0789 | -3.2646 | -8.655 | -9.0208 | -13.8382 | -6.8833 | -7.1204 | -8.728 | -9.531 | 6.725 | 2.47 | 0.2405 | -0.1995 | -9.208 | -5.729 | -5.289 | -3.421 | autophagy induction (U2OS [1]; [11]): 2.478%; autophagy induction (U2OS [1]; [12]): -1.409%; autophagy induction (U2OS [1]; [13]): -1.806%; autophagy induction (U2OS [1]; [14]): -1.259%; autophagy induction (U2OS [2]; [3]): -0.8639%; autophagy induction (U2OS [2]; [4]): 3.062%; autophagy induction (U2OS [2]; [5]): -2.159%; autophagy induction (U2OS [2]; [6]): 0.6428%; autophagy induction (U2OS [2]; [7]): 14.1219%; autophagy induction (U2OS [2]; [8]): 7.888%; autophagy induction (U2OS [2]; [9]): 7.881%; autophagy induction (U2OS [2]; [10]): 5.533%; autophagy induction (U2OS [2]; [11]): -0.07351%; autophagy induction (U2OS [2]; [12]): -0.8676%; autophagy induction (U2OS [2]; [13]): 0.7982%; autophagy induction (U2OS [2]; [14]): -3.188% |
| C[C@H](CO)Nc1nc(SCc2cccc(Cl)c2F)nc2[nH]c(=O)sc12 | -10.6276 | -12.9518 | -15.2456 | -20.3989 | -5.728 | -8.929 | -11.3534 | -17.566 | -4.7585 | -7.211 | -11.193 | -13.8782 | 5.635 | -1.036 | -0.662 | 0.3997 | -11.0736 | -4.995 | -2.19 | -0.5002 | autophagy induction (U2OS [1]; [11]): 9.288%; autophagy induction (U2OS [1]; [12]): 6.328%; autophagy induction (U2OS [1]; [13]): 3.708%; autophagy induction (U2OS [1]; [14]): 1.649%; autophagy induction (U2OS [2]; [3]): -2.252%; autophagy induction (U2OS [2]; [4]): -5.227%; autophagy induction (U2OS [2]; [5]): -4.361%; autophagy induction (U2OS [2]; [6]): 0.5148%; autophagy induction (U2OS [2]; [7]): -3.135%; autophagy induction (U2OS [2]; [8]): -6.665%; autophagy induction (U2OS [2]; [9]): -3.053%; autophagy induction (U2OS [2]; [10]): -3.815%; autophagy induction (U2OS [2]; [11]): -3.826%; autophagy induction (U2OS [2]; [12]): 1.119%; autophagy induction (U2OS [2]; [13]): 5.199%; autophagy induction (U2OS [2]; [14]): 9.3581% |
